From patent US7288622B1, “Composition for treatment of burns and wounds” (Issar Pharmaceuticals Pvt Ltd, priority 2006, dated 2007)
Converted amounts (≈) assume the structure as drawn. Residues, ends and D or L forms follow the SMILES beside them.

Experiments:
[1] = tested on: rats; experiment: Acute toxicity test of the peptide in rats; format: in vivo; conditions: 8.95 mg/kg intraperitoneal, single dose, inspected at 3rd, 6th, 12th and 24th hour, animals active on 14th day
Protocol: (§1) The safety of the peptide was tested with mice and rats at age of 4 to 6 weeks. The tests were conducted with five female mice and rats and five male mice and rats. The dose of the peptide injected intraperitoneal was 8.95 mg/kg for rats and 12.53 mg/kg for mice. The acute toxicity test was conducted at 3rd, 6th, 12th and 24th hour after exposure to the peptide. […] The animals were active still on 14th day.

[2] = physchem; format: physicochemical
Excerpt: The molecular weight of the peptide is 2776 and 3388 with counter ions. The peptide is water-soluble and forms an alpha helical secondary protein structure.

[3] = tested on: mice; experiment: Acute toxicity test of the peptide in mice; format: in vivo; conditions: 12.53 mg/kg intraperitoneal, single dose, inspected at 3rd, 6th, 12th and 24th hour, animals active on 14th day
Protocol: as §1

With `C[C@H](NC(=O)[C@H](Cc1ccccc1)NC(=O)[C@H](C)NC(=O)[C@H](Cc1ccccc1)NC(=O)[C@H](CCCCN)NC(=O)[C@H](C)NC(=O)[C@H](Cc1ccccc1)NC(=O)[C@H](CCCCN)NC(=O)[C@H](CCCCN)NC(=O)[C@H](C)NC(=O)[C@H](Cc1ccccc1)NC(=O)[C@H](CCCCN)NC(=O)[C@H](CCCCN)NC(=O)[C@H](Cc1ccccc1)NC(=O)[C@H](CCCCN)NC(=O)[C@H](CCCCN)NC(=O)[C@H](C)NC(=O)[C@H](Cc1ccccc1)NC(=O)[C@H](CCCCN)NC(=O)[C@H](CCCCN)NC(=O)[C@H](C)NC(=O)[C@@H](N)Cc1ccccc1)C(=O)N[C@@H](Cc1ccccc1)C(=O)O` [peptide] (H-FAKKFAKKFKKFAKKFAKFAFAF-OH; N-terminus and C-terminus assumed) the Acute lethality [1] was “No lethality was found”, the “Solubility in 10% DMSO in saline” value [2] was 32.25 mM (≈ 89.5 mg/mL) and the solubility ([2]; saline or isotonic) was 31.6 mM (≈ 87.6 mg/mL). The Acute lethality [3] was “No lethality was found”.
